≈ marks a conversion by molar mass, not a printed value. Each block holds one compound with its values, some of them ahead of it.
Legend:
S. aureus ATCC 29213 [1] = settings: Staphylococcus aureus ATCC 29213; CLSI-established; cited from earlier work
[2] = system: protein synthesis in S. aureus ATCC 29213; test: Macromolecular synthesis assay: protein synthesis ([3H] leucine); assay type: cell-based, Staphylococcus aureus; settings: 8 fold the MIC (2 μg/mL)
Procedure: Cells were grown at 35° C. overnight on Trypticase Soy agar. A colony from the plate was used to inoculate 10 ml of Mueller Hinton broth II (MHBII), and the culture was grown to early exponential growth phase (OD600==0.2 to 0.3) while incubating in a shaker at 35° C. and 200 rpm.
When cells reached early exponential phase, 100 μL of culture was added to triplicate wells containing various concentrations of test compound or control antibiotics (5 μL) at 20× the final concentration in 100% DMSO. A 5% DMSO treated culture served as the “no drug” control for all experiments. Cells were added in MHBII at 105% to account for the volume of drug added to each reaction or in M9 minimal medium for protein synthesis reactions. Following 15 min incubation at room temperature, either [^3H] thymidine (DNA synthesis), [^3H] uridine (RNA synthesis) or [^3H] leucine (protein synthesis) was added at 0.5-1.0 μCi per reaction, depending on the experiment. Reactions were allowed to proceed at room temperature for 15-30 min and then stopped by adding 12 μL of cold 5% trichloroacetic acid (TCA) or 5% TCA/2% casamino acids (protein synthesis only). […] After washing three times with 5 ml of cold 5% TCA, the filters were rinsed two times with 5 mL 100% ethanol, allowed to dry, and then counted using a Beckman LS3801 liquid scintillation counter.

S. aureus ATCC 29213 [3] = test: MIC testing (CLSI M07-A8, MHB II), Example 2; assay type: cell-based; settings: ATCC29213, Staphylococcus aureus ATCC 29213
[4] = Bioassay ranking of the analogues tested; settings: M + R (MRSA and VRE combined)
Pseudomonas aeruginosa = test: Broth microdilution MIC, Example 7 (NCL812 and analogues); assay type: cell-based; settings: P. aeruginosa; 24 hours; duplicate lines per compound
MRSA [5] = test: as above; assay type: cell-based, Staphylococcus aureus
Procedure, shortened: (§1)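 Duplicates per isolate, repeated a third time if >one two-fold dilution apart. MIC50, MIC20 and range calculated per bacterial group.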

Staphylococcus aureus = test: Mouse skin wound infection model, topical treatment; assay type: in vivo, mice; settings: 14 treatments
Excerpt: Preliminary studies prior to the conduct of the current study established a new method of skin infection arising from a detailed study of the models mentioned above. Briefly, study mice are anaesthetised, a patch of dorsal skin is clipped to reveal the skin and a circular area of skin is removed with a hand held punch, leaving a wound on the dorsum with a central cavity. The wound is infected with a known number of the challenge organism. Approximately four to six hours after infection, the wound is either treated topically with a vehicle formulation or an active formulation. The infected skin wound is retreated every 12 hours for a total of 14 treatments. Mice are humanely euthanased, the area of the original infected wound is dissected and removed and its bacterial content quantified by standard microbiologic tests. In this way, the change in bacterial concentration due to treatment with the active formulation can be readily determined by examining the reduction in bacterial burden compared with the vehicle control. Fresh cultures of bacteria (Staphylococcus aureus) were grown on Sheep Blood Agar at 37° C. for 16-18 hours. A few typical colonies were selected and suspended in 10 ml of Tryptic Soy Broth and incubated overnight in a shaking incubator (240 rpm) at 37° C. The overnight suspension was vortexed and diluted (1:100) in fresh Tryptic soy broth (100 μl [0.1 ml] in 9.9 ml broth). The fresh suspension was incubated for 3 hours in a shaking incubator (as above) in order to obtain mid-logarithmic phase bacteria. Bacteria were pelleted through centrifugation at 7,500 rpm for 10 mins. Broth supernatant was removed and bacteria suspended in 10 ml Phosphate Buffered Saline (PBS). These steps were repeated a further two times. The density of the suspension was checked by measuring absorbance at 600 nm, using a spectrophotometer with saline as a blank, to confirm the target density at a reading of approximately 0.100, consistent with a bacterial density of 2.5×10^7 CFU/ml. The suspension was placed into a rack placed into a lockable transport box with an ice brick to maintain refrigeration during transport, followed by storage in cool room upon arrival at the mouse skin infection laboratory. Final suspension was mixed thoroughly before inoculating the skin wounds created in mice. […] Eyes of each anaesthetised mouse were covered with veterinary eye lubricant in order to prevent corneal dehydration. Each mouse removed from induction chamber and placed onto surgical area, in front of individual aesthetic nose cone. While under anaesthesia each mouse was monitored for assessment of depth of anaesthesia (response to pain, blink reflex, skeletal muscle tone) and respiratory and cardiac function. Back skin hair was shaved from surgical area with mechanical clippers. […] Once the iodine solution was dry, a subcutaneous injection of the nonsteroidal anti-inflammatory agent meloxicam was administered. Dorsal skin was pinched gently to allow creation of a circular full-thickness wound using ear punch/biopsy punch. […] Once the bacterial suspension was dry, mice were placed into individual recovery boxes labelled with the mouse number. The time of inoculation was recorded. Initial body weights of each mouse were recorded on the appropriate score sheet. Mice recovered to full consciousness within 5 minutes. Recovered mice were returned to individual housing and monitored hourly for post-surgical or anaesthetic complications. […] Each ointment container was weighted prior to administration and the weight recorded. Each mouse was carefully restrained. […] The weight of the ointment container post-administration was recorded. […] At the end of the 7 day skin wound assessment period, all test mice were euthanased prior to wound collection for post mortem examination. The skin wound was dissected from the dorsum of each mouse. The sample was placed in a sample tube and weighed before 1 ml PBS and sterile tissue homogenisation beads were added. […]

Escherichia coli = test: Broth microdilution MIC, Example 7 (NCL812 and analogues); assay type: cell-based; settings: E. coli; 24 hours; duplicate lines per compound
[6] = Release from Formulation B, Franz diffusion cells; assay type: physicochemical; settings: absolute ethanol receptor, 32±1° C., up to 24 hours
Procedure: Franz diffusion cells were utilized to quantify the release rate of NCL 812 and NCL099 from its topical formulations. Five milliliters of absolute ethanol, which was chosen as the desired release medium, was loaded into the receptor chamber. Temperature of the receptor fluid was kept constant, at 32±1° C. using a water jacket. Acetyl cellulose membranes, with pore size of 0.45 μm (Pall Corporation) was selected and placed between donor and receptor chamber. Followed by that, a number of test samples (Formulation B) was loaded into the donor chamber. One milliliter of receptor fluid was collected at regular time intervals of 0.25, 0.50, 0.75, 1, 2, 3, 4, 5, 6, 7, 8 and 24 hours through the sampling port. One milliliter of fresh absolute ethanol was immediately returned to the receptor chamber. UV-HPLC was utilized to analyse the content of the receptor fluids attained.

VRE = test: Broth microdilution MIC, Example 7 (NCL812 and analogues); assay type: cell-based, Enterococcus spp.
Procedure, shortened: as §1

MRSA [7] = settings: within an hour of exposure to a concentration equivalent to the Cmax; McKay et al. (2009); cited from earlier work

MIC (S. aureus ATCC 29213 [3]): 4 µg/mL (≈ 11.9 µM)
SMILES: CC(=O)NC[C@H]1CN(c2ccc(N3CCOCC3)c(F)c2)C(=O)O1 [Linezolid]
Quality control range for linezolid (MIC) (S. aureus ATCC 29213 [1]): 1 to 4 µg/mL | inhibition of protein synthesis [2]: approximately 61%

MIC (μg/ml) at 24 hours, P. aeruginosa (Pseudomonas aeruginosa): >128 µg/mL | MIC (μg/ml) at 24 hours, MRSA 1 (MRSA [5]; MRSA 1, 24 hours, duplicate lines per compound): 8 µg/mL | MIC (μg/ml) at 24 hours, MRSA 2 (MRSA [5]; MRSA 2, 24 hours, duplicate lines per compound): 4 µg/mL | MIC (μg/ml) at 24 hours, E. coli (Escherichia coli): >128 µg/mL | release profile from Formulation B [6]: acceptable release profile | MIC (μg/ml) at 24 hours, VRE 1 (VRE; VRE 1, 24 hours, duplicate lines per compound): 8 µg/mL | MIC (μg/ml) at 24 hours, VRE 2 (VRE; VRE 2, 24 hours, duplicate lines per compound): 8 µg/mL
SMILES: CC(C)(C)c1ccc(C=NNC(=N)NN=Cc2ccc(C(C)(C)C)cc2)cc1.Cl [NCL099]
M + R [4]: 7 µg/mL | activity against MRSA among analogues (MRSA [5]; MIC testing, two MRSA strains): greatest activity | MRSA (MRSA [5]; bioassay ranking, MRSA): 6 µg/mL | mean colony count per g of tissue, log10 (Staphylococcus aureus; mice, Formulation B 20 mg/g topically every 12 hours, vehicle 6.77): 3.12 log10 | mean colony count per g of tissue (Staphylococcus aureus; mice, Formulation B 20 mg/g topically every 12 hours, vehicle 5,888,436): 1,318 | % reduction (of colony forming units per gram of tissue versus vehicle) (Staphylococcus aureus; mouse skin wound infected with Staphylococcus aureus, topical ointment (Formulation B, 20 mg/g) every 12 hours, end of 7 day period, relative to vehicle group): 99.98% | Log10 (CFU/g): colony forming units per gram of tissue (Staphylococcus aureus; mouse skin wound infected with Staphylococcus aureus, topical ointment (Formulation B, 20 mg/g) every 12 hours, wound tissue at end of 7 day period, group mean): 3.12 Log10 (CFU/g) | activity against VRE among analogues (VRE; MIC testing, two VRE strains): greatest activity | VRE (VRE; bioassay ranking, VRE): 8 µg/mL

SMILES: CN[C@H](CC(C)C)C(=O)N[C@H]1C(=O)N[C@@H](CC(N)=O)C(=O)N[C@H]2C(=O)N[C@H]3C(=O)N[C@H](C(=O)N[C@H](C(=O)O)c4cc(O)cc(O)c4-c4cc3ccc4O)[C@H](O[C@H]3C[C@](C)(N)[C@@H](O)[C@H](C)O3)c3ccc(c(Cl)c3)Oc3cc2cc(c3O[C@@H]2O[C@H](CO)[C@@H](O)[C@H](O)[C@H]2O[C@H]2C[C@](C)(NCc3ccc(-c4ccc(Cl)cc4)cc3)[C@@H](O)[C@H](C)O2)Oc2ccc(cc2Cl)[C@H]1O [oritavancin]
reduction in viable count (MRSA [7]): 3 log10
